In ChEMBL document CHEMBL1201862, “PubChem BioAssay data set” (2004):
Calls of active or inactive are those of the source.

Key:
Mu-type opioid receptor [1] = target: T1, Mu-type opioid receptor (Homo sapiens, UniProt P35372); assay: SAR Analysis of Agonists of the MOR Receptor using an Image-Based Assay - Set 3. [Related pubchem assays (depositor defined):AID1777, AID1785, AID1786, AID1966, AID2133, AID2136, AID2284, AID2285, AID2352]; type: functional
[2] = target: T2, Delta-type opioid receptor (Homo sapiens, UniProt P41143); assay: SAR Analysis of Agonists of the DOR Receptor using an Image-Based Assay - Set 3. [Related pubchem assays (depositor defined):AID1777, AID1786]; type: functional
T2 sequence (P41143 whole entry): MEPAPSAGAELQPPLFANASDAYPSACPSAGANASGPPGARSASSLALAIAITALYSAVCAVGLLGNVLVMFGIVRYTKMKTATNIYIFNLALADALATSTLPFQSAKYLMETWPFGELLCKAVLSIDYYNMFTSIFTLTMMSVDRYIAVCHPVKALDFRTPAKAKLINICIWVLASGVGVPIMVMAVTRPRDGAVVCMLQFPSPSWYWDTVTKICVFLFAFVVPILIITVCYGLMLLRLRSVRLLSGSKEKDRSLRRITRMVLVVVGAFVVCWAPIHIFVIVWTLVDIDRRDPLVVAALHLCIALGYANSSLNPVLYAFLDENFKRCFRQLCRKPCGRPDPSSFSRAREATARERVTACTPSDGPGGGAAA

[3] = target: T3, Kappa-type opioid receptor (Homo sapiens, UniProt P41145); assay: kappa opioid receptor activation by imaging – image-based, set 3, SAR follow-up (AID 488833); type: functional
T3 sequence (P41145 whole entry): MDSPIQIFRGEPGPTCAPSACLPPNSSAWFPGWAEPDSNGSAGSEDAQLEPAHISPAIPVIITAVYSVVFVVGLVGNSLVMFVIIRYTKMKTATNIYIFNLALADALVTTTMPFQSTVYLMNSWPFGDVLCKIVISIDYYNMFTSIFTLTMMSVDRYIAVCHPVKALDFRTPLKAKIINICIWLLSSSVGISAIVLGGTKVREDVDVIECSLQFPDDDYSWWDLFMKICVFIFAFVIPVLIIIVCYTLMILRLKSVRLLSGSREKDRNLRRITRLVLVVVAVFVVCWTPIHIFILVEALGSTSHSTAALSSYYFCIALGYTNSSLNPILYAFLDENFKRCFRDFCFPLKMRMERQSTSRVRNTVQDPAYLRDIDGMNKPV

[4] = target: T3, Kappa-type opioid receptor; assay: SAR analysis of small molecule agonists of the kappa opioid receptor via a luminescent beta-arrestin assay - Set 3. [Related pubchem assays (depositor defined):AID1777, AID1785, AID1786, AID1966, AID2133, AID2136, AID2284, AID2500]; type: functional
[5] = target: Lysine-specific demethylase 4A (Homo sapiens, UniProt O75164); assay: inhibition of JMJD2A H3K9me3 demethylation – biochemical, DELFIA europium, cherry-picked samples, selectivity assay for GASC-1 inhibitor project, dose response (AID 488840)
[6] = target: T4, G-protein coupled receptor 35 (Homo sapiens, UniProt Q9HC97); assay: SAR Analysis for the identification of Selective Antagonists of ERK1/2 Activity in GPR35-Overexpressing U2OS Cells. [Related pubchem assays: 2079, 2058 ]; type: functional, cell-based
T4 sequence (Q9HC97 whole entry): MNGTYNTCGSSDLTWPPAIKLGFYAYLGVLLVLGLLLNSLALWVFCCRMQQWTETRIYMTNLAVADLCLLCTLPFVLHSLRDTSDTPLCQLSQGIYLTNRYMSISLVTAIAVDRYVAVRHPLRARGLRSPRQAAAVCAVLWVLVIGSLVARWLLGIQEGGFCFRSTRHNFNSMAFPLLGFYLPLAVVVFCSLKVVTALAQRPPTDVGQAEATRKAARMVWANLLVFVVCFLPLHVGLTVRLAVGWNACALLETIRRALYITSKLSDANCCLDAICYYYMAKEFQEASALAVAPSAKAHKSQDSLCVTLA

[7] = target: G-protein coupled receptor 55 (Homo sapiens, UniProt Q9Y2T6); assay: blockers of GPR55 signalling, imaged – imaging, image-based, counter-screen for GPR35 antagonist project, SAR follow-up (AID 2397); type: functional
G-protein coupled receptor 55, sequence (Q9Y2T6 whole entry): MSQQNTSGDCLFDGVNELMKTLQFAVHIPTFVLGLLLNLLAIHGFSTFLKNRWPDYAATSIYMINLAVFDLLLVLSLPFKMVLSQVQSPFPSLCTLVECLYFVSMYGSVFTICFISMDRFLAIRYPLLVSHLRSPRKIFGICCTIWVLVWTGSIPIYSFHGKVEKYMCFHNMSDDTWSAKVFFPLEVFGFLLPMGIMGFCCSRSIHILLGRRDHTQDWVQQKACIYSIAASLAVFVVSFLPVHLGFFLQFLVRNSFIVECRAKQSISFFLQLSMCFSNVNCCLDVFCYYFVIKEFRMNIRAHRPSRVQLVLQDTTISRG

[8] = target: T4, G-protein coupled receptor 35; assay: inhibition of zaprinast-stimulated GPR35 beta-arrestin translocation – imaging, U2OS, beta-arrestin-GFP, zaprinast agonist, primary screen (AID 2058); type: functional;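 note: antagonist potency meaning inhibition of agonist-induced arrestin redistribution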
[9] = target: T3, Kappa-type opioid receptor; type: functional
[10] = target: T2, Delta-type opioid receptor; assay: HTS Image-Based Screen for Agonists of the DOR Receptor. [Related pubchem assays (depositor defined):AID1777, AID1786, AID2133]; type: functional
[11] = target: T3, Kappa-type opioid receptor; type: functional; remark: listed apart in the source
Mu-type opioid receptor [12] = target: T1, Mu-type opioid receptor; assay: HTS Image-Based Screen for Agonists of the MOR Receptor. [Related pubchem assays (depositor defined):AID1777, AID1785, AID1786, AID2133]; type: functional
Beta-galactosidase = Beta-galactosidase (Escherichia coli, UniProt Q8VNN2); type: functional
[13] = target: T5, Ubiquitin-conjugating enzyme E2 N (Homo sapiens, UniProt P61088); type: functional;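 note: Dose-response confirmation in a TR-FRET assay detecting UBC13-driven polyubiquitin chain formation, inhibition measured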
T5 sequence (P61088 whole entry): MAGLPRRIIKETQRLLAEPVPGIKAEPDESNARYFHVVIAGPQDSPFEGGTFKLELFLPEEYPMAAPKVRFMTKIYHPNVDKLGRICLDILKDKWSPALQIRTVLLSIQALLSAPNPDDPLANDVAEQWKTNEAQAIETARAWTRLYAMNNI

Paired box protein Pax-8 = Paired box protein Pax-8 (Homo sapiens, UniProt Q06710); assay: PAX8 transcriptional activity inhibition in RMG-I – RMG-I cells, luciferase, cherry-pick, dose response (AID 687027); type: functional, cell-based;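 note: luciferase reporter driven by Pax8 target thyroperoxidase promoter measured by SteadyGlo luminescence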
Paired box protein Pax-8, sequence (Q06710 whole entry): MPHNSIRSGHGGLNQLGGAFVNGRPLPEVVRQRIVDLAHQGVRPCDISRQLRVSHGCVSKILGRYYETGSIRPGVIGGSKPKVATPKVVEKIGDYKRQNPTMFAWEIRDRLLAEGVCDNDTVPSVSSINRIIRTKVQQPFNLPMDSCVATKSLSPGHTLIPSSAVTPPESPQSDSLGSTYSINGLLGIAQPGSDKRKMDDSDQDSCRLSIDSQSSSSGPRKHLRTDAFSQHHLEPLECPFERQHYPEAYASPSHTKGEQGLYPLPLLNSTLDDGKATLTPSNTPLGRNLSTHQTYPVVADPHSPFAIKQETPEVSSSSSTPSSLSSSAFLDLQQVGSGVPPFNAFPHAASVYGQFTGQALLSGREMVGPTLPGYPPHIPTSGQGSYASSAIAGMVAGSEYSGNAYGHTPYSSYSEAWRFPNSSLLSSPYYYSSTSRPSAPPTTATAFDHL

[14] = target: T2, Delta-type opioid receptor; assay: HTS Image-Based Screen for Antagonists of the DOR Receptor. [Related pubchem assays (depositor defined):AID1777, AID1785, AID1786, AID2133]; type: functional
[15] = target: T6, Tyrosine-protein phosphatase non-receptor type 22 (Homo sapiens, UniProt Q9Y2R2); type: functional
T6 sequence (Q9Y2R2 whole entry): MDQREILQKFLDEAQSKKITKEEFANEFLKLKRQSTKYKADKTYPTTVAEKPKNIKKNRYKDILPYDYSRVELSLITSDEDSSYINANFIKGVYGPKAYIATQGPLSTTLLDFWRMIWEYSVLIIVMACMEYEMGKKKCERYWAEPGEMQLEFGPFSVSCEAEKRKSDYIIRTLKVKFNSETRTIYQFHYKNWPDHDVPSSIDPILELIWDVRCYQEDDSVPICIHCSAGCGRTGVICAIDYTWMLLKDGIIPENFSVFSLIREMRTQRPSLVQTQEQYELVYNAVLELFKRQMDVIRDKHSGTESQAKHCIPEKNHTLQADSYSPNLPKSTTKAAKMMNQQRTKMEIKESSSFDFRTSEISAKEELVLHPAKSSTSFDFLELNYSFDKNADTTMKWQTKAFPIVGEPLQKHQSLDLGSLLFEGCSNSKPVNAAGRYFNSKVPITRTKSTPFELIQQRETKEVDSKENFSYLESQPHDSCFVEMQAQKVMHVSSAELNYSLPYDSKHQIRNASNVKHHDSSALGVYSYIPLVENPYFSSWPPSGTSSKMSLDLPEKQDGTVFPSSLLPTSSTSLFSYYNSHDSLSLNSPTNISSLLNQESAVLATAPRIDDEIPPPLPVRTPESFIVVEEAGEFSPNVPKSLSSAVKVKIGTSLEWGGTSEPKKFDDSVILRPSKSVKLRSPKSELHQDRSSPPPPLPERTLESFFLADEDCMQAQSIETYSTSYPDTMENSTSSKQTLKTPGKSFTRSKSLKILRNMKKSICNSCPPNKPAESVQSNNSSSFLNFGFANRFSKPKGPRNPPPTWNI

[16] = target: T6, Tyrosine-protein phosphatase non-receptor type 22; type: functional; remark: listed apart in the source
[17] = target: T7, Tyrosine-protein phosphatase non-receptor type 7 (Homo sapiens, UniProt P35236); type: functional
T7 sequence (P35236 whole entry): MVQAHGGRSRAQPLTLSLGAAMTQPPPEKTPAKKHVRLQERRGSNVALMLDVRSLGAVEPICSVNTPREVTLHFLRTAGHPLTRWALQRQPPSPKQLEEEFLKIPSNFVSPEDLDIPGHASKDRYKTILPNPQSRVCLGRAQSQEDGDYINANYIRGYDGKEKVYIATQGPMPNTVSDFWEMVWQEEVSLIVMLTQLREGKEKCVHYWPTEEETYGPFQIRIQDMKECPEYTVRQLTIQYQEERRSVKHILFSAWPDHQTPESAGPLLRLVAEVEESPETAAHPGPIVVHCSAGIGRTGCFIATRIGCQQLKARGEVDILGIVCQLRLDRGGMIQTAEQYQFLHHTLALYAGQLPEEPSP

[18] = target: Heat shock protein HSP 90-alpha (Homo sapiens, UniProt P07900); type: functional, organism-based
Streptococcus = assay: GAS UMAA2166 growth inhibition – luminescence, BacTiterGlo, counter-screen for streptokinase expression inhibitor project, dose response (AID 1915); type: functional, organism-based;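 note: potency for reduction of bacterial viability or growth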
[19] = test system: Streptococcus sp. 'group A'; assay: Streptococcus pyogenes SK(-)GAS viability under kanamycin – luminescence, BacTiterGlo, confirmation, counter-screen for streptokinase expression inhibitor project, dose response (AID 1900); type: functional, organism-based
Streptokinase A = target: T8, Streptokinase A (Streptococcus pyogenes serotype M1, UniProt P10520); assay: viability-normalized secreted streptokinase activity reduction – plasminogen activation absorbance, OD405, dose response (AID 1914); type: functional, Streptococcus pyogenes M1 GAS;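 note: secreted streptokinase activity via plasminogen activation per viability signal from cell pellet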
T8 sequence (P10520 whole entry): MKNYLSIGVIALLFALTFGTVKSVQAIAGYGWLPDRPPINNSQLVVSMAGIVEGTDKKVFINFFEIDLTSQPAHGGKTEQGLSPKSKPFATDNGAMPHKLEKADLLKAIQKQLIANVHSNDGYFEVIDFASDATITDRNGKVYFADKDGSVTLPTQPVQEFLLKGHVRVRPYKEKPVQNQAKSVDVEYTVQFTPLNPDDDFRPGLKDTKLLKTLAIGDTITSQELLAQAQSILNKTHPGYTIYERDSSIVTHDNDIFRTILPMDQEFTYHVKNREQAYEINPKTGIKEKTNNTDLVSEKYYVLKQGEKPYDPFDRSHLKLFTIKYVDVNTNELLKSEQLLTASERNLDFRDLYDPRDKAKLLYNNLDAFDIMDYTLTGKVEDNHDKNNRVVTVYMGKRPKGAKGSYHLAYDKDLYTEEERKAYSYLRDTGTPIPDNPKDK

[20] = PhoP promoter GFP reporter reduction in Typhimurium – purified and synthesized compounds, set 2, PhoP regulon inhibitor project, dose response (AID 2831); type: functional
[21] = target: Nucleotide-binding oligomerization domain-containing protein 2 (Homo sapiens, UniProt Q9HC29); assay: PubChem AID 2334; type: functional
[22] = target: Nucleotide-binding oligomerization domain-containing protein 1 (Homo sapiens, UniProt Q9Y239); assay: blockers of NOD1 pathway activity – revised, SAR follow-up (AID 2333); type: functional
HEK293 [23] = assay: NOD2 signaling inhibitors in MDP-stimulated cells, cell-based, uHTS, luminescence (AID 2001); type: functional; conditions: Homo sapiens
Tumor necrosis factor = Tumor necrosis factor (Homo sapiens, UniProt P01375); assay: analog potency on TNFa NF-kB signaling – cell-based, revised, SAR follow-up (AID 2337); type: functional
Tumor necrosis factor, sequence (P01375 whole entry): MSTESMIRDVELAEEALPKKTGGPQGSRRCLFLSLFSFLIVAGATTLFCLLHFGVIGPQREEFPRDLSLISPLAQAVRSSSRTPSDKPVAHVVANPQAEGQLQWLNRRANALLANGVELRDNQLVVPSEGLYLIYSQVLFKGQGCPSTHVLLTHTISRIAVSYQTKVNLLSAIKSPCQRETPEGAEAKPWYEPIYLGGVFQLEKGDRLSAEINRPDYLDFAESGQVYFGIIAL

HEK293 [24] = assay: inhibition of NOD1-driven NF-kB reporter – cell-based, luminescence, uHTS, primary screen (AID 1578); type: functional; conditions: Homo sapiens
[25] = Trypanosoma cruzi growth suppression in host cells – NIH3T3 host cells, beta-gal luminescence, confirmation (AID 2044); type: functional, cell-based;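 note: intracellular parasites grown in NIH/3T3 mouse fibroblasts as host cells; luminescent beta-galactosidase reporter signal from transgenic T. cruzi replicating inside host cells; inhibitors lower the luminescence signal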
HEK293 [26] = assay: cells; type: functional, cell-based; conditions: Homo sapiens
[27] = NIH3T3 cell viability loss – ATP luminescence, mouse fibroblasts, counter-screen, dose response (AID 2010); type: functional, cell-based;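 note: cells exposed to compound for about 90 hours before reading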
HEK293 [28] = assay: cells; conditions: Homo sapiens
HEK293 [29] = assay: cells; type: functional, cell-based; conditions: Homo sapiens; remark: listed apart in the source
[30] = target: Signal transducer and activator of transcription 3 (Homo sapiens, UniProt P40763); assay: STAT3 blockade with qPCR and toxicity readouts – cell-based, STAT1 panel, cytotoxicity, late-stage follow-up, panel member STAT3 Inhibition (AID 2078)
Signal transducer and activator of transcription 3, sequence (P40763 whole entry): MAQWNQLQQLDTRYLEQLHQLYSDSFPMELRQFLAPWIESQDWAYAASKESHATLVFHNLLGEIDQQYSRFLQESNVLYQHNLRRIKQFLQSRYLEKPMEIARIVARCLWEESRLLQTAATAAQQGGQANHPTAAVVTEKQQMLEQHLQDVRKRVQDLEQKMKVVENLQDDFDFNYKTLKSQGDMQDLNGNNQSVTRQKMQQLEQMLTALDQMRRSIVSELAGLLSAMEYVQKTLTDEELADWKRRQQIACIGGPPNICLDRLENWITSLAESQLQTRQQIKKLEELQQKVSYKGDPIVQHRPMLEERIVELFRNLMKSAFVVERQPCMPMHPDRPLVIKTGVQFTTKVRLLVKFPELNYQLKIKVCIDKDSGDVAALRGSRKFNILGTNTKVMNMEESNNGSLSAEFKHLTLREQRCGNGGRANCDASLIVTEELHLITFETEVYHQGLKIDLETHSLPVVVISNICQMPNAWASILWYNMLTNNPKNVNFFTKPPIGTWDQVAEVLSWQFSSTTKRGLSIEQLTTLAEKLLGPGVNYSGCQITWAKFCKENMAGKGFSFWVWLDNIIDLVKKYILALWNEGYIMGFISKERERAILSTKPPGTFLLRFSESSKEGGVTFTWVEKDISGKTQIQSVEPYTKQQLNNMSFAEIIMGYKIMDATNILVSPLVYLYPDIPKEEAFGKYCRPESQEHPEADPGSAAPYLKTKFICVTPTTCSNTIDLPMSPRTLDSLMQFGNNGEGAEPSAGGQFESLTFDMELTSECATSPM

[31] = target: Signal transducer and activator of transcription 1-alpha/beta (Homo sapiens, UniProt P42224); assay: STAT3 blockade with qPCR and toxicity readouts – cell-based, STAT1 panel, cytotoxicity, late-stage follow-up, panel member STAT1 Inhibition (AID 2078)
Signal transducer and activator of transcription 1-alpha/beta, sequence (P42224 whole entry): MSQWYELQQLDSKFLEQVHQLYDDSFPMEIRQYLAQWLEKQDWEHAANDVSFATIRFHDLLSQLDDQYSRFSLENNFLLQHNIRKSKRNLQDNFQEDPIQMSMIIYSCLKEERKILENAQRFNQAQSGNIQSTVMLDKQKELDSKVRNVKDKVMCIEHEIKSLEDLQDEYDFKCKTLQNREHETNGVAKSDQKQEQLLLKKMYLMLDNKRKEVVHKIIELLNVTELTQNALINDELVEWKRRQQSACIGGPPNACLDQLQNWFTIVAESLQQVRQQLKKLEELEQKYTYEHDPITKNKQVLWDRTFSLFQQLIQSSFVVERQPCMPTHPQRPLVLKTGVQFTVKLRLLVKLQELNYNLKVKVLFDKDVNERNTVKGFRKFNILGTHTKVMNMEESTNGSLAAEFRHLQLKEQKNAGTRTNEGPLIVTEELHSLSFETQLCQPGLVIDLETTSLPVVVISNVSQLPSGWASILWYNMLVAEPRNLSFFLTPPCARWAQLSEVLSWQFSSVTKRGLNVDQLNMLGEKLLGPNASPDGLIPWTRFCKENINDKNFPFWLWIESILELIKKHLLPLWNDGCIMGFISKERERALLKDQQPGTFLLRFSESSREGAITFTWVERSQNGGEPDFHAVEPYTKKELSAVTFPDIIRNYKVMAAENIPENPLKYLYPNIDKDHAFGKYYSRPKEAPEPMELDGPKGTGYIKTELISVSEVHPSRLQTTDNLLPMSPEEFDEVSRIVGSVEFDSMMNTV

[32] = target: T9, COUP transcription factor 2 (Homo sapiens, UniProt P24468); assay: Luminescence-based cell-based high throughput dose response assay to identify inhibitors of COUP-TFII (NR2F2).; type: functional;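 note: HEK293 cells transiently cotransfected with COUP-TFII expression vector and reporter; luciferase reporter luminescence driven by COUP-TFII from the pX2-168 reporter plasmid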
T9 sequence (P24468 whole entry): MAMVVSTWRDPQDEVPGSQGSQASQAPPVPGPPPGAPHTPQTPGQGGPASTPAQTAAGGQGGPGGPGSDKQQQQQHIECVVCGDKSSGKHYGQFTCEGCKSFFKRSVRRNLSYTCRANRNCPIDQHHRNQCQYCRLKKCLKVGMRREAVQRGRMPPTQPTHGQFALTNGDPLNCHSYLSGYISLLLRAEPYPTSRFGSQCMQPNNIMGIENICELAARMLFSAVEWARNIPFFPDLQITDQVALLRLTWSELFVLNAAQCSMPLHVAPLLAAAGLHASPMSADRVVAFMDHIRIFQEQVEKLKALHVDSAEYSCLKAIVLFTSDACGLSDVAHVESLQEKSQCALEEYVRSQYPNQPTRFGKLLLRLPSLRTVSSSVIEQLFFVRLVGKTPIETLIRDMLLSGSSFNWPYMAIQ

T1 sequence (P35372 whole entry): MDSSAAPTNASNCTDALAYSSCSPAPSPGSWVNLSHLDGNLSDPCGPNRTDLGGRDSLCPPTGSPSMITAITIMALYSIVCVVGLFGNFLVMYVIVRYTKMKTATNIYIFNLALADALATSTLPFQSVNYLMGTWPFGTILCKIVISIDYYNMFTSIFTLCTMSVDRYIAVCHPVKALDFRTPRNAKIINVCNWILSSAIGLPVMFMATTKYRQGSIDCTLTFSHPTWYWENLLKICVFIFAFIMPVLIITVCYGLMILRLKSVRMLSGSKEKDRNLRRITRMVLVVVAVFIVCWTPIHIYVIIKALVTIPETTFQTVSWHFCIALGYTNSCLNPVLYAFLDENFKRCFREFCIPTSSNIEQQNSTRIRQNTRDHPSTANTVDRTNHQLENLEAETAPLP

SMILES: COC(=O)c1ccc(CSc2nnc(-c3ccccn3)n2Cc2cccs2)cc1
- EC50 (Mu-type opioid receptor [1]): > 32 µM (inactive)
- EC50 [2]: > 32 µM (inactive)
- EC50 [3]: 5.99 µM (active)
- EC50 [4]: 6.14 µM (active)

SMILES: O=C(NN=C1CCCCCCCCCCC1)c1cccc(S(=O)(=O)N2CCOCC2)c1
- AC50 [5]: 18.1 µM (active)

SMILES: CC(C)(C)c1ccc(OCCC(=O)NCCc2ccc(S(N)(=O)=O)cc2)cc1
- IC50 [6]: 9.95 µM (active)
- IC50 [7]: > 32 µM (inactive)
- IC50 [8]: 0.929 µM (active)

SMILES: Cc1ccc(C(=O)N[C@@H](C)CN2C3=NC[C@@H](Cc4ccccc4)N3C[C@H]2Cc2ccc(O)cc2)cc1Br
- IC50 [9]: 1.44 µM
- EC50 [10]: 31.2 µM (inactive)
- IC50 [11]: 3.16 µM (active)
- EC50 (Mu-type opioid receptor [12]): > 32 µM (inactive)
- EC50 (Beta-galactosidase): > 31.5 µM (inactive)
- IC50 [13]: > 20 µM (inactive)
- AC50 (Paired box protein Pax-8): 24.8 µM (active)
- IC50 [14]: > 32 µM (inactive)

SMILES: COc1ccc(N2CCN(CCOc3ccc4c(C)cc(=O)oc4c3)CC2)cc1
- IC50 [15]: > 79.4 µM (inactive)
- IC50 [16]: > 79.4 µM (inactive)
- IC50 [17]: > 79.4 µM (inactive)

SMILES: CSc1nc2cc(Cl)c(Oc3cccc(Cl)c3Cl)cc2[nH]1 [TRICLABENDAZOLE]
- AC50 [18]: 4.25 µM (active)
- EC50 (Streptococcus): 6.22 µM (active)
- EC50 [19]: 2.26 µM (active)
- EC50 (Streptokinase A): 4.69 µM (active)
- IC50 [20]: > 125 µM (active)

SMILES: COc1ccc(C(=O)NC(=S)N(C)C2CCCCC2)cc1Br
- IC50 [21]: > 20 µM (inactive)
- IC50 [22]: > 20 µM (inactive)
- IC50 (HEK293 [23]): 6.75 µM (inactive)
- IC50 (Tumor necrosis factor): > 20 µM (inactive)
- EC50 (HEK293 [24]): > 20 µM (inactive)
- EC50 [25]: 3.6 µM (active)
- IC50 (HEK293 [26]): > 20 µM (inactive)
- EC50 [27]: 12.4 µM (active)
- IC50 (HEK293 [28]): > 20 µM (inactive)
- IC50 (HEK293 [29]): > 20 µM (inactive)

SMILES: O=C(c1ccccc1)C1CCN(c2ncnc3sccc23)CC1
- IC50 [30]: 0.688 µM (active)
- IC50 [31]: > 55.7 µM (inactive)
- IC50 [32]: 5.71 µM (active)
